Assay results taken from PubChem BioAssay (NCI).
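Cultured in 96-well plates, cells were exposed to test compound for 48 hours across five concentrations. GI50 marks 50% less growth. Definition used: TGI = concentration required for complete inhibition of growth.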

How the values were obtained:
Experiment in all cases: NCI anticancer screen, dose series, 48 h
[1] = system: A498 renal
[2] = system: HCC-2998 colon
[3] = system: SW-620 colon
[4] = system: M14 melanoma
[5] = system: COLO 205 colon
[6] = system: SK-OV-3 ovarian
[7] = system: HOP-62 NSCLC
[8] = system: NCI-H460 lung
[9] = system: K-562 leukemia
[10] = system: RPMI-8226 leukemia
[11] = system: LXFL 529 NSCLC
[12] = system: UACC-62 melanoma
[13] = system: U251 CNS
[14] = system: CCRF-CEM leukemia
[15] = system: HT29 colon
[16] = system: SK-MEL-28 melanoma
[17] = system: HCT-116 colon
[18] = system: HL-60(TB) leukemia
[19] = system: MOLT-4 leukemia
[20] = system: SNB-75 CNS
[21] = system: KM12 colon
[22] = system: MALME-3M melanoma
[23] = system: HOP-92 NSCLC
[24] = system: OVCAR-8 ovarian
[25] = system: 786-0 renal

CC(=O)[CH-]C(=O)c1ccccc1.CC(=O)[CH-]C(=O)c1ccccc1.CC[O-].CC[O-].[Hf+4]
GI50 [1]: > 100 µM | TGI [1]: > 100 µM | GI50 [2]: > 100 µM | TGI [2]: > 100 µM | GI50 [3]: > 100 µM | TGI [3]: > 100 µM | GI50 [4]: > 100 µM | TGI [4]: > 100 µM | GI50 [5]: > 100 µM | TGI [5]: > 100 µM | GI50 [6]: > 100 µM | TGI [6]: > 100 µM | GI50 [7]: > 100 µM | TGI [7]: > 100 µM | GI50 [8]: > 100 µM | TGI [8]: > 100 µM | GI50 [9]: > 100 µM | TGI [9]: > 100 µM | GI50 [10]: > 100 µM | TGI [10]: > 100 µM | GI50 [11]: > 100 µM | TGI [11]: > 100 µM | GI50 [12]: > 100 µM | TGI [12]: > 100 µM | GI50 [13]: > 100 µM | TGI [13]: > 100 µM | GI50 [14]: 69.1 µM | TGI [14]: > 100 µM | GI50 [15]: > 100 µM | TGI [15]: > 100 µM | GI50 [16]: > 100 µM | TGI [16]: > 100 µM | GI50 [17]: > 100 µM | TGI [17]: > 100 µM | GI50 [18]: > 100 µM | TGI [18]: > 100 µM | GI50 [19]: > 100 µM | TGI [19]: > 100 µM | GI50 [20]: > 100 µM | TGI [20]: > 100 µM | GI50 [21]: > 100 µM | TGI [21]: > 100 µM | GI50 [22]: > 100 µM | TGI [22]: > 100 µM | GI50 [23]: 36.8 µM | TGI [23]: > 100 µM | GI50 [24]: > 100 µM | TGI [24]: > 100 µM | GI50 [25]: > 100 µM | TGI [25]: > 100 µM
